Here are results for 4 compounds from ChEMBL document CHEMBL1649198, “Efflux unbalance in Pseudomonas aeruginosa isolates from cystic fibrosis patients” (2009).

By MIC is commonly meant the smallest concentration in the dilution series that meets the test's criterion for growth inhibition. High values mean weaker potency, low ones greater potency.

≈ marks a conversion by molar mass, not a printed value.

Test [1] relates to Pseudomonas aeruginosa. Nature of the test: Antimicrobial activity against Pseudomonas aeruginosa isolate 2858 obtained from cystic fibrosis patient by disk diffusion method. It counts as functional. A general note: In agar diffusion tests the substance spreads into inoculated agar from a disc or well.
Test [2] has as its system Pseudomonas aeruginosa. Nature of the test: Antimicrobial activity against Pseudomonas aeruginosa isolate 3020S obtained from cystic fibrosis patient by disk diffusion method. It counts as functional.
Test [3] has as its system Pseudomonas aeruginosa. Nature of the test: Antimicrobial activity against Pseudomonas aeruginosa isolate 2716 obtained from cystic fibrosis patient by agar dilution method.
In test [4] the test system is Pseudomonas aeruginosa. Nature of the test: Antimicrobial activity against Pseudomonas aeruginosa mutGR1 overexpressing mexXY mutant by twofold macrodilution method. It counts as functional.
The test system of test [5] is Pseudomonas aeruginosa. As to the kind of experiment: Antimicrobial activity against Pseudomonas aeruginosa isolate 2729 obtained from cystic fibrosis patient by disk diffusion method. In kind it is functional.
Test [6] deals with Pseudomonas aeruginosa. Nature of the test: Antimicrobial activity against Pseudomonas aeruginosa isolate 615S obtained from cystic fibrosis patient by disk diffusion method. It counts as functional.
Test [7] deals with Pseudomonas aeruginosa. Nature of the test: Antimicrobial activity against Pseudomonas aeruginosa isolate 2804 obtained from cystic fibrosis patient by disk diffusion method. It counts as functional.
Test [8] has as its system Pseudomonas aeruginosa. As to the kind of experiment: Antimicrobial activity against Pseudomonas aeruginosa isolate 2721 obtained from cystic fibrosis patient by agar dilution method. (In general: Agar dilution tests growth on a series of plates holding different concentrations.)
Test [9] has as its system Pseudomonas aeruginosa. Nature of the test: Antimicrobial activity against Pseudomonas aeruginosa isolate 615R obtained from cystic fibrosis patient by disk diffusion method. In kind it is functional.
Test [10] concerns Pseudomonas aeruginosa. Nature of the test: Antimicrobial activity against Pseudomonas aeruginosa PAO1 by twofold macrodilution method. It counts as functional.
In test [11] the test system is Pseudomonas aeruginosa. As to the kind of experiment: Antimicrobial activity against Pseudomonas aeruginosa isolate 3066 obtained from cystic fibrosis patient by disk diffusion method. It counts as functional.
The subject of test [12] is Pseudomonas aeruginosa. As to the kind of experiment: Ratio of MIC for mexB deficient Pseudomonas aeruginosa FB1 mutant to Pseudomonas aeruginosa PAO1. It counts as functional.
For test [13], the system named is Pseudomonas aeruginosa. Nature of the test: Antimicrobial activity against Pseudomonas aeruginosa isolate 2998 obtained from cystic fibrosis patient by agar dilution method.
For test [14], the system named is Pseudomonas aeruginosa. As to the kind of experiment: Antimicrobial activity against Pseudomonas aeruginosa isolate 2933 obtained from cystic fibrosis patient by disk diffusion method. In kind it is functional.
Test [15] concerns Pseudomonas aeruginosa. As to the kind of experiment: Antimicrobial activity against Pseudomonas aeruginosa isolate 2715 obtained from cystic fibrosis patient by agar dilution method.
The test system of test [16] is Pseudomonas aeruginosa. Nature of the test: Antimicrobial activity against Pseudomonas aeruginosa isolate 3020R obtained from cystic fibrosis patient by agar dilution method.
Test [17] concerns Pseudomonas aeruginosa. Nature of the test: Antimicrobial activity against ampicillin- and ticarcillin-resistant Pseudomonas aeruginosa FE60 mutant transformed with pAGH97 carrying mexXY F1018L mutant by twofold macrodilution method. It counts as functional.
Test [18] deals with Pseudomonas aeruginosa. As to the kind of experiment: Antimicrobial activity against ampicillin- and ticarcillin-resistant Pseudomonas aeruginosa FE60 mutant transformed with pAGH97 carrying mexXY operon by twofold macrodilution method. It counts as functional.
The subject of test [19] is Pseudomonas aeruginosa. Nature of the test: Antimicrobial activity against ampicillin- and ticarcillin-resistant Pseudomonas aeruginosa FE60 mutant transformed with pAGH97 carrying mexXY F29S mutant by twofold macrodilution method. It counts as functional.
Test [20] deals with Pseudomonas aeruginosa. As to the kind of experiment: Antimicrobial activity against mexXY deficient ampicillin- and ticarcillin-resistant Pseudomonas aeruginosa FE60 mutant by twofold macrodilution method. It counts as functional.
Test [21] deals with Pseudomonas aeruginosa. As to the kind of experiment: Antimicrobial activity against mexXY operon inactivated Pseudomonas aeruginosa isolate 615S obtained from cystic fibrosis patient by disk diffusion method. It counts as functional, organism-based.
For test [22], the system named is Pseudomonas aeruginosa. As to the kind of experiment: Antimicrobial activity against mexXY operon inactivated Pseudomonas aeruginosa PAO1 by twofold macrodilution method. In kind it is functional.
Test [23] has as its system Pseudomonas aeruginosa. Nature of the test: Antimicrobial activity against mexXY operon inactivated Pseudomonas aeruginosa isolate 2858 obtained from cystic fibrosis patient by disk diffusion method. In kind it is functional, organism-based.

For `CC1(C)S[C@@H]2[C@H](NC(=O)[C@H](C(=O)O)c3ccsc3)C(=O)N2[C@H]1C(=O)O` [TICARCILLIN], the minimal inhibitory concentration (MIC) against Pseudomonas aeruginosa [1] turned out to be 2 µg/mL (≈ 5.2 µM); in the test on Pseudomonas aeruginosa [2] it was 16 µg/mL (≈ 41.6 µM); in the test on Pseudomonas aeruginosa [3] it was 2 µg/mL (≈ 5.2 µM); against Pseudomonas aeruginosa [4], 32 µg/mL (≈ 83.2 µM); against Pseudomonas aeruginosa [5] it was 0.5 µg/mL (≈ 1.3 µM); against Pseudomonas aeruginosa [6] it was 1 µg/mL (≈ 2.6 µM). The MIC with Pseudomonas aeruginosa [7] was determined as 0.5 µg/mL (≈ 1.3 µM); against Pseudomonas aeruginosa [8], 2 µg/mL (≈ 5.2 µM); in the test with Pseudomonas aeruginosa [9] it was 2 µg/mL (≈ 5.2 µM); with Pseudomonas aeruginosa [10], 32 µg/mL (≈ 83.2 µM); in the test with Pseudomonas aeruginosa [11], 2 µg/mL (≈ 5.2 µM); in the test on Pseudomonas aeruginosa [13], 0.5 µg/mL (≈ 1.3 µM). In addition, the minimal inhibitory concentration (MIC) with Pseudomonas aeruginosa [14] came to 0.5 µg/mL (≈ 1.3 µM); in the test on Pseudomonas aeruginosa [15], 2 µg/mL (≈ 5.2 µM); with Pseudomonas aeruginosa [16], 2 µg/mL (≈ 5.2 µM). The “fold change (FC)” value in the test on Pseudomonas aeruginosa [12] came to 64.

On to `NC[C@H]1O[C@H](O[C@H]2[C@H](O)[C@@H](O[C@H]3O[C@H](CO)[C@@H](O)[C@H](N)[C@H]3O)[C@H](N)C[C@@H]2N)[C@H](N)C[C@@H]1O` [TOBRAMYCIN], for which the MIC with Pseudomonas aeruginosa [1] was found to be 1 µg/mL (≈ 2.14 µM); in the test with Pseudomonas aeruginosa [2], 0.5 µg/mL (≈ 1.07 µM); with Pseudomonas aeruginosa [17], 1 µg/mL (≈ 2.14 µM); in the test with Pseudomonas aeruginosa [3] it was 1 µg/mL (≈ 2.14 µM); against Pseudomonas aeruginosa [4], 1 µg/mL (≈ 2.14 µM); against Pseudomonas aeruginosa [5], 2 µg/mL (≈ 4.28 µM). The MIC is 0.5 µg/mL (≈ 1.07 µM) against Pseudomonas aeruginosa [18]; 0.25 µg/mL (≈ 0.535 µM) in the test on Pseudomonas aeruginosa [6]; 64 µg/mL (≈ 137 µM) with Pseudomonas aeruginosa [7]; 4 µg/mL (≈ 8.56 µM) against Pseudomonas aeruginosa [8]; 2 µg/mL (≈ 4.28 µM) in the test on Pseudomonas aeruginosa [9]; 0.5 µg/mL (≈ 1.07 µM) against Pseudomonas aeruginosa [10]. Also, the MIC in the test with Pseudomonas aeruginosa [11] came to 16 µg/mL (≈ 34.2 µM); in the test with Pseudomonas aeruginosa [13], 4 µg/mL (≈ 8.56 µM); with Pseudomonas aeruginosa [14] it was 4 µg/mL (≈ 8.56 µM); with Pseudomonas aeruginosa [19], 0.5 µg/mL (≈ 1.07 µM); with Pseudomonas aeruginosa [15] it was 2 µg/mL (≈ 4.28 µM); against Pseudomonas aeruginosa [20] it was 0.06 µg/mL (≈ 0.128 µM). The same compound displayed an MIC in the test with Pseudomonas aeruginosa [16] of 4 µg/mL (≈ 8.56 µM).

In the case of GENTAMICIN, the MIC is 4 µg/mL against Pseudomonas aeruginosa [1]; 2 µg/mL against Pseudomonas aeruginosa [2]; 2 µg/mL against Pseudomonas aeruginosa [17]; 0.125 µg/mL against Pseudomonas aeruginosa [21]; 2 µg/mL in the test on Pseudomonas aeruginosa [4]; 0.125 µg/mL in the test on Pseudomonas aeruginosa [22]. For the same compound, the MIC against Pseudomonas aeruginosa [5] was determined as 8 µg/mL; with Pseudomonas aeruginosa [18] it was 1 µg/mL; in the test with Pseudomonas aeruginosa [6], 1 µg/mL; in the test on Pseudomonas aeruginosa [7], 64 µg/mL; in the test with Pseudomonas aeruginosa [9], 8 µg/mL; in the test on Pseudomonas aeruginosa [10], 1 µg/mL. Moreover, the MIC with Pseudomonas aeruginosa [11] stood at 64 µg/mL; with Pseudomonas aeruginosa [14] it was 16 µg/mL; against Pseudomonas aeruginosa [19], 1 µg/mL; in the test on Pseudomonas aeruginosa [20], 0.125 µg/mL; against Pseudomonas aeruginosa [23], 0.125 µg/mL.

On to `NCC[C@H](O)C(=O)N[C@@H]1C[C@H](N)[C@@H](O[C@H]2O[C@H](CN)[C@@H](O)[C@H](O)[C@H]2O)[C@H](O)[C@H]1O[C@H]1O[C@H](CO)[C@@H](O)[C@H](N)[C@H]1O` [AMIKACIN], for which the MIC against Pseudomonas aeruginosa [1] worked out at 8 µg/mL (≈ 13.7 µM); with Pseudomonas aeruginosa [2], 2 µg/mL (≈ 3.42 µM); in the test on Pseudomonas aeruginosa [17], 8 µg/mL (≈ 13.7 µM); with Pseudomonas aeruginosa [3], 8 µg/mL (≈ 13.7 µM); against Pseudomonas aeruginosa [4] it was 8 µg/mL (≈ 13.7 µM); in the test on Pseudomonas aeruginosa [5], 16 µg/mL (≈ 27.3 µM). Besides, the MIC was 4 µg/mL (≈ 6.83 µM) in the test with Pseudomonas aeruginosa [18]; 2 µg/mL (≈ 3.42 µM) in the test on Pseudomonas aeruginosa [6]; 128 µg/mL (≈ 219 µM) against Pseudomonas aeruginosa [7]; 32 µg/mL (≈ 54.6 µM) against Pseudomonas aeruginosa [8]; 16 µg/mL (≈ 27.3 µM) with Pseudomonas aeruginosa [9]; 2 µg/mL (≈ 3.42 µM) in the test with Pseudomonas aeruginosa [10]. The MIC against Pseudomonas aeruginosa [11] was 128 µg/mL (≈ 219 µM); against Pseudomonas aeruginosa [13] it was 16 µg/mL (≈ 27.3 µM); against Pseudomonas aeruginosa [14] it was 32 µg/mL (≈ 54.6 µM); against Pseudomonas aeruginosa [19], 4 µg/mL (≈ 6.83 µM); in the test with Pseudomonas aeruginosa [15] it was 8 µg/mL (≈ 13.7 µM); against Pseudomonas aeruginosa [20] it was 0.5 µg/mL (≈ 0.854 µM). In the test on Pseudomonas aeruginosa [16], this compound came in with a minimal inhibitory concentration (MIC) of 32 µg/mL (≈ 54.6 µM).
